Test results as given in patent US20260226086A1, “COMPOUNDS AND COMPOSITIONS AS STAT3 DEGRADERS AND USES THEREOF” (REGENTS OF THE UNIVERSITY OF MICHIGAN, priority 2023, published 2026).

What was measured:
Assay type in all cases: cell-based
STAT3 = molecular target: T1, STAT3 (Homo sapiens, UniProt P40763); experiment: HiBiT assay, STAT3 degradation in STAT3-HiBiT KI HeLa cells; conditions: 24 h; for DC50: read-out: STAT3 Degradation (HeLa 24 h HiBit) DC50
T1 construct: This cell line is a clone created by using CRISPR-Cas9 to fuse HiBiT to the 3′ end of STAT3 in HeLa cells; host or cells: STAT3-HiBiT KI HeLa cell line (CRISPR-Cas9 knock-in clone)
Summary of the method: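 Luminescence of endogenous HiBiT-tagged STAT3 (C-terminal knock-in, HeLa) was measured with lytic Nano-Glo detection after 24 h exposure to serially diluted compounds at 37 °C. Cells plated at 20000/well; untreated cells served as control, and triplicate means were fit by four-parameter regression to give IC50.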

SUP-M2 cells = experiment: CellTiter-Glo 2.0 cell viability assay, SUP-M2; conditions: SUP-M2, 96 h, 4 days
Summary of the method: (§1)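 IC50 derived by four-parameter nonlinear regression on triplicate luminescence data (CellTiter-Glo 2.0), normalised to untreated controls. Cells plated at 1000/well received serial compound dilutions for 4 days at 37 °C with 5% CO2.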

SU-DHL-1 cells = experiment: CellTiter-Glo 2.0 cell viability assay, SU-DHL-1; conditions: Homo sapiens, 96 h, 4 days
Summary of the method: as §1

T1 sequence (P40763 whole entry): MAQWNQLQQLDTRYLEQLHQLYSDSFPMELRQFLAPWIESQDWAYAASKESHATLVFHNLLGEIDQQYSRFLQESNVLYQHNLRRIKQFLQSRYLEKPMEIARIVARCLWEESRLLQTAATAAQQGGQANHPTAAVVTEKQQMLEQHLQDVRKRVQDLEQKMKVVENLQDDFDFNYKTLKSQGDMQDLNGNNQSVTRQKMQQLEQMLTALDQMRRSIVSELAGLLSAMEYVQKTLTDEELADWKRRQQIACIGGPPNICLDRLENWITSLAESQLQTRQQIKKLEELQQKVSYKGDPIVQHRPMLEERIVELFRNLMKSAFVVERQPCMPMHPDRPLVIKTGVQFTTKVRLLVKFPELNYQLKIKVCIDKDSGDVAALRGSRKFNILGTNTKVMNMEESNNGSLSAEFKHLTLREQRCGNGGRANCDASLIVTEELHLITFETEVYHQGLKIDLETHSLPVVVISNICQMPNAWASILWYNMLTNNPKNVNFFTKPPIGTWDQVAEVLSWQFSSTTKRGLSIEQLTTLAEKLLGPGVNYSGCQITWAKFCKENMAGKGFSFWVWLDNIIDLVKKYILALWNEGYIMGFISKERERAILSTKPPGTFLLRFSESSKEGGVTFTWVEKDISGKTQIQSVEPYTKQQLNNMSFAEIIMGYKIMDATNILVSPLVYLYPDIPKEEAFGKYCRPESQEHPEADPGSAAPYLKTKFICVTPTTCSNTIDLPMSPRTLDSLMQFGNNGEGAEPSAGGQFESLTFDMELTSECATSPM

Compound | Dmax at 1 µM (STAT3) [%] | DC50 (STAT3) [nM] | IC50 (SUP-M2 cells) [nM] | IC50 (SU-DHL-1 cells) [nM]
COCCOCCOCCOCCN1CC[C@H]2CC[C@@H](C(=O)N[C@@H](CCC(N)=O)COc3cccc(CCCc4cn([C@H](C(=O)N5C[C@H](O)C[C@H]5C(=O)N[C@@H](C)c5ccc(-c6scnc6C)cc5)C(C)(C)C)nn4)c3Cl)N2C(=O)[C@@H](NC(=O)c2cc3cc(C(=O)P(=O)(O)O)ccc3[nH]2)C1 [Compound 31, (2-(((5S,8S,10aR)-8-(((S)-5-amino-1-(2-chloro-3-(3-(1-((S)-1-((2S,4R)-4-hydroxy-2-(((S)-1-(4-(4-methylthiazol-5-yl)phenyl)ethyl)carbamoyl)pyrrolidin-1-yl)-3,3-dimethyl-1-oxobutan-2-yl)-1H-1,2,3-triazol-4-yl)propyl)phenoxy)-5-oxopentan-2-yl)carbamoyl)-6-oxo-3-(2,5,8,11-tetraoxatridecan-13-yl)decahydropyrrolo[1,2-a][1,5]diazocin-5-yl)carbamoyl)-1H-indole-5-carbonyl)phosphonic acid] | > 80 | 10 to 100 | 10 to 100 | 10 to 100
Cc1ncsc1-c1ccc([C@H](C)NC(=O)[C@@H]2C[C@@H](O)CN2C(=O)[C@@H](n2cc(CCCC(=O)N3CC[C@H]4CC[C@@H](C(=O)N[C@@H](CCC(N)=O)C(=O)NCc5cccc(Cl)c5)N4C(=O)[C@@H](NC(=O)c4cc5cc(C(=O)P(=O)(O)O)ccc5[nH]4)C3)nn2)C(C)(C)C)cc1 [Compound 9, (2-(((5S,8S,10aR)-8-(((S)-5-amino-1-((3-chlorobenzyl)amino)-1,5-dioxopentan-2-yl)carbamoyl)-3-(4-(1-((S)-1-((2S,4R)-4-hydroxy-2-(((S)-1-(4-(4-methylthiazol-5-yl)phenyl)ethyl)carbamoyl)pyrrolidin-1-yl)-3,3-dimethyl-1-oxobutan-2-yl)-1H-1,2,3-triazol-4-yl)butanoyl)-6-oxodecahydropyrrolo[1,2-a][1,5]diazocin-5-yl)carbamoyl)-1H-indole-5-carbonyl)phosphonic acid] | > 80 | 10 to 100 | 10 to 100 | 10 to 100
Cc1ncsc1-c1ccc([C@H](C)NC(=O)[C@@H]2C[C@@H](O)CN2C(=O)[C@@H](NC(=O)CCC(=O)N2CC[C@H]3CC[C@@H](C(=O)N[C@@H](CCC(N)=O)C(=O)NC(c4ccccc4)c4ccccc4)N3C(=O)[C@@H](NC(=O)c3cc4cc(C(=O)P(=O)(O)O)ccc4[nH]3)C2)C(C)(C)C)cc1 [Compound 47, (2-(((5S,8S,10aR)-8-(((S)-5-amino-1-(benzhydrylamino)-1,5-dioxopentan-2-yl)carbamoyl)-3-(4-(((S)-1-((2S,4R)-4-hydroxy-2-(((S)-1-(4-(4-methylthiazol-5-yl)phenyl)ethyl)carbamoyl)pyrrolidin-1-yl)-3,3-dimethyl-1-oxobutan-2-yl)amino)-4-oxobutanoyl)-6-oxodecahydropyrrolo[1,2-a][1,5]diazocin-5-yl)carbamoyl)-1H-indole-5-carbonyl)phosphonic acid] | – | 100 to 1000 | 100 to 1000 | 100 to 1000
CC(=O)N1CC[C@H]2CC[C@@H](C(=O)N[C@@H](CCC(N)=O)COc3cccc(CCCc4cn([C@H](C(=O)N5C[C@H](O)C[C@H]5C(=O)N[C@@H](C)c5ccc(-c6scnc6C)cc5)C5CCOCC5)nn4)c3Cl)N2C(=O)[C@@H](NC(=O)c2cc3cc(C(=O)P(=O)(O)O)ccc3[nH]2)C1 [Compound 23, (2-(((5S,8S,10aR)-3-acetyl-8-(((S)-5-amino-1-(2-chloro-3-(3-(1-((S)-2-((2S,4R)-4-hydroxy-2-(((S)-1-(4-(4-methylthiazol-5-yl)phenyl)ethyl)carbamoyl)pyrrolidin-1-yl)-2-oxo-1-(tetrahydro-2H-pyran-4-yl)ethyl)-1H-1,2,3-triazol-4-yl)propyl)phenoxy)-5-oxopentan-2-yl)carbamoyl)-6-oxodecahydropyrrolo[1,2-a][1,5]diazocin-5-yl)carbamoyl)-1H-indole-5-carbonyl)phosphonic acid] | > 80 | < 10 | < 10 | < 10
Cc1ncsc1-c1ccc([C@H](C)NC(=O)[C@@H]2C[C@@H](O)CN2C(=O)[C@@H](n2cc(CCCCCCCCC(=O)N3CC[C@H]4CC[C@@H](C(=O)N[C@@H](CCC(N)=O)C(=O)NC(c5ccccc5)c5ccccc5)N4C(=O)[C@@H](NC(=O)c4cc5cc(C(=O)P(=O)(O)O)ccc5[nH]4)C3)nn2)C(C)(C)C)cc1 [Compound 61, (2-(((5S,8S,10aR)-8-(((S)-5-amino-1-(benzhydrylamino)-1,5-dioxopentan-2-yl)carbamoyl)-3-(9-(1-((S)-1-((2S,4R)-4-hydroxy-2-(((S)-1-(4-(4-methylthiazol-5-yl)phenyl)ethyl)carbamoyl)pyrrolidin-1-yl)-3,3-dimethyl-1-oxobutan-2-yl)-1H-1,2,3-triazol-4-yl)nonanoyl)-6-oxodeca-hydropyrrolo[1,2-a][1,5]diazocin-5-yl)carbamoyl)-1H-indole-5-carbonyl)phosphonic acid] | – | > 1000 | > 1000 | > 1000
Cc1ncsc1-c1ccc([C@H](C)NC(=O)[C@@H]2C[C@@H](O)CN2C(=O)[C@@H](n2cc(CCCCC(=O)N3CC[C@H]4CC[C@@H](C(=O)N[C@@H](CCC(N)=O)COc5cccc(Cl)c5)N4C(=O)[C@@H](NC(=O)c4cc5cc(C(=O)P(=O)(O)O)ccc5[nH]4)C3)nn2)C(C)(C)C)cc1 [Compound 12, (2-(((5S,8S,10aR)-8-(((S)-5-amino-1-(3-chlorophenoxy)-5-oxopentan-2-yl)carbamoyl)-3-(5-(1-((S)-1-((2S,4R)-4-hydroxy-2-(((S)-1-(4-(4-methylthiazol-5-yl)phenyl)ethyl)carbamoyl)pyrrolidin-1-yl)-3,3-dimethyl-1-oxobutan-2-yl)-1H-1,2,3-triazol-4-yl)pentanoyl)-6-oxodecahydropyrrolo[1,2-a][1,5]diazocin-5-yl)carbamoyl)-1H-indole-5-carbonyl)phosphonic acid] | > 80 | 10 to 100 | 10 to 100 | 100 to 1000
Cc1ncsc1-c1ccc([C@H](C)NC(=O)[C@@H]2C[C@@H](O)CN2C(=O)[C@@H](n2cc(CC(=O)N3CC[C@H]4CC[C@@H](C(=O)N[C@@H](CCC(N)=O)C(=O)NC(c5ccccc5)c5ccccc5)N4C(=O)[C@@H](NC(=O)c4cc5cc(C(=O)P(=O)(O)O)ccc5[nH]4)C3)nn2)C(C)(C)C)cc1 [Compound 54, (2-(((5S,8S,10aR)-8-(((S)-5-amino-1-(benzhydrylamino)-1,5-dioxopentan-2-yl)carbamoyl)-3-(2-(1-((S)-1-((2S,4R)-4-hydroxy-2-(((S)-1-(4-(4-methylthiazol-5-yl)phenyl)ethyl)carbamoyl)pyrrolidin-1-yl)-3,3-dimethyl-1-oxobutan-2-yl)-1H-1,2,3-triazol-4-yl)acetyl)-6-oxodecahydropyrrolo[1,2-a][1,5]diazocin-5-yl)carbamoyl)-1H-indole-5-carbonyl)phosphonic acid] | – | > 1000 | > 1000 | > 1000
Cc1ncsc1-c1ccc([C@H](C)NC(=O)[C@@H]2C[C@@H](O)CN2C(=O)[C@@H](n2cc(CCCC(=O)N3CC[C@H]4CC[C@@H](C(=O)N[C@@H](CCC(N)=O)C(=O)NC(c5ccccc5)c5ccccc5)N4C(=O)[C@@H](NC(=O)c4cc5cc(C(=O)P(=O)(O)O)ccc5[nH]4)C3)nn2)C(C)(C)C)cc1 [Compound 56, (2-(((5S,8S,10aR)-8-(((S)-5-amino-1-(benzhydrylamino)-1,5-dioxopentan-2-yl)carbamoyl)-3-(4-(1-((S)-1-((2S,4R)-4-hydroxy-2-(((S)-1-(4-(4-methylthiazol-5-yl)phenyl)ethyl)carbamoyl)pyrrolidin-1-yl)-3,3-dimethyl-1-oxobutan-2-yl)-1H-1,2,3-triazol-4-yl)butanoyl)-6-oxodecahydropyrrolo[1,2-a][1,5]diazocin-5-yl)carbamoyl)-1H-indole-5-carbonyl)phosphonic acid] | – | > 1000 | 100 to 1000 | 100 to 1000
COCCOCCOCCOCCC(=O)N1CC[C@H]2CC[C@@H](C(=O)N[C@@H](CCC(N)=O)COc3cccc(CCCc4cn([C@H](C(=O)N5C[C@H](O)C[C@H]5C(=O)N[C@@H](C)c5ccc(-c6scnc6C)cc5)C(C)(C)C)nn4)c3Cl)N2C(=O)[C@@H](NC(=O)c2cc3cc(C(=O)P(=O)(O)O)ccc3[nH]2)C1 [Compound 30, (2-(((5S,8S,10aR)-8-(((S)-5-amino-1-(2-chloro-3-(3-(1-((S)-1-((2S,4R)-4-hydroxy-2-(((S)-1-(4-(4-methylthiazol-5-yl)phenyl)ethyl)carbamoyl)pyrrolidin-1-yl)-3,3-dimethyl-1-oxobutan-2-yl)-1H-1,2,3-triazol-4-yl)propyl)phenoxy)-5-oxopentan-2-yl)carbamoyl)-6-oxo-3-(2,5,8,11-tetraoxatetradecan-14-oyl)decahydropyrrolo[1,2-a][1,5]diazocin-5-yl)carbamoyl)-1H-indole-5-carbonyl)phosphonic acid] | > 80 | < 10 | 10 to 100 | < 10
